The values that follow come from patent US11149066B2, “Thrombospondin 1-binding peptide” (DAIICHI SANKYO COMPANY, LIMITED, priority 2016, dated 2021).

Like-named read-outs stand apart in the source and are kept apart here. Positions of bridges follow the written chain, without caps; N, C: chain ends. Non-standard residues stand in square brackets, D forms with d. Residues, ends and D or L forms follow the SMILES beside them. 2Nal = N[C@@H](Cc1ccc2ccccc2c1)C(=O)O; Phg = N[C@H](C(=O)O)c1ccccc1; Nle = CCCC[C@H](N)C(=O)O

Assay [1] relates to C57BL/6 mice. Nature of the assay: Blood flow improvement tests (femoral artery/vein ligation and excision, laser Doppler). The class given is in vivo. The following applies: after 7 days of surgery; for % change (vs. vehicle): blood flow ratio ischemia/nonischemia; for %, ischemia/nonischemia: blood flow ratio of ischemic limb to non-ischemic limb, laser Doppler. An excerpt:
(Test Example 3) Blood Flow Improvement Tests
Seven to nine-week-old male C57BL/6 mice were purchased from Charles River Laboratories Japan Inc., and acclimated over one week by feeding with a FR-2 solid diet (produced by Funabashi Farm Co., Ltd.). The rearing facility switched between light and dark modes in a 12-hour cycle with light turning on at 7 a.m and turning off at 7 p.m. Under isofluorane inhalation anaesthesia, the left thighs of the mice were dissected, and the superficial femoral arteries and veins (from just below the deep femoral arteries to the popliteal artery and vein) were ligated and excised. After animal models were made, the test substances (Compounds 24, 28, 40 to 45, and 58) were each dissolved in a solution of 20 mM lactic acid and 5% (w/v) Lutrol, and intraperitoneally injected into mice once daily.
(Blood Flow Improvement Test 1)
Compound 24 (10 mg/kg)-treated group
(Blood Flow Improvement Test 2)
Compound 28 (10 mg/kg)-treated group
(Blood Flow Improvement Test 3)
Compound 40 (10 mg/kg)-treated group
Compound 41 (10 mg/kg)-treated group
(Blood Flow Improvement Test 4)
Compound 42 (10 mg/kg)-treated group
Compound 43 (10 mg/kg)-treated group
Compound 44 (10 mg/kg)-treated group
Compound 45 (10 mg/kg)-treated group
(Blood Flow Improvement Test 5)
Compound 58 (10 mg/kg)-treated group
Blood flows were measured in ischemic (left) and non-ischemic (right) limbs using a laser Doppler perfusion imager (LDPI; PIM III, Perimed, Inc.). Blood flow values were evaluated by the ratio of ischemic limb flow to non-ischemic limb flow.
Blood flow values from the mice were the lowest immediately after surgery and then gradually recovered. All of the test substances investigated in the animal models of this study improved blood flow recovery after surgery as compared to vehicle treatment. After 7 days of surgery, the blood flows in the test substance-treated groups were higher than in the vehicle-treated mice.

The target in assay [2] is human TSP1 (Homo sapiens, UniProt P07996). Briefly: Cell adhesion inhibition assay (HUVEC adhesion to TSP1-coated plate). The class given is cell-based. Here is the method:
As referred to herein, the TSP1 inhibitory activity refers to the activity to inhibit one or more effects of TSP1, including angiostatic effect. The TSP1 inhibitory activity is measured by a cell adhesion inhibition assay using human TSP1 and vascular endothelial cells as described hereinbelow in the Examples section. In this assay, when the 50% inhibitory concentration (IC5O) of a test substance is 200 nM or less, the test substance is determined to have TSP1 inhibitory activity.
(Test Example 1) Cell Adhesion Inhibition Assay
I. Materials and Reagents
96 well Non-treated White with clear bottom (Coster, 3632)
BrightMax adhesive sealing films (EXCEL Scientific, WT50)
Proteosave®SS 15 mL (Sumitomo Bakelite, MS-52150)
Thrombospondin human platelet (Calbiochem, 605225)
EGM-2 MV (Lonza, CC-3202): for HUVEC passaging
Collagen coated dish (IWAKI, 4020-010): for HUVEC passaging
Lipidure®-BL802 (NOF Corporation), 5% solution
Albumin solution (35%) fraction V from Bovine (Sigma, A7979)
CellTiter-Glo (Promega, G7572)
Thrombospondin 1 vial (25 μg) was dissolved in TBS (+2 mM CaCl2; the same shall apply hereunder) to make a 200 μg/mL solution, which was diluted with TBS to a concentration of 10 μg/mL in Proteosave® 15 mL tube. The 10 μg/mL solution was dispensed into a 96 well plate at a volume of 50 μL/well (no reservoir was used since the protein easily adsorbs on it), and the plate was left to stand at 4° C. overnight.
Lipidure® was diluted 10-fold with TBS to make a 0.5% solution. After a buffer was discarded from the plate that had been coated at the step of <Plate coat> as described above, the 0.5% solution was dispensed into all wells to be used at a volume of 100 μL/well, and the plate was left to stand at room temperature for 1 hour.
A 0.2 μM solution of each sample was prepared using a dilution buffer (DMEM+0.5% BSA). 2 μL of the 0.2 μM solution was diluted with 500 μL, of dilution buffer to prepare a diluted sample. As a vehicle control, DMSO was diluted in the same way as the samples.
A blocking solution was discarded from the plate that had been treated at the step of <Plate blocking> as described above, and the plate was washed three times with 150 μL/well of TBS. The washing solution used for the third washing was completely sucked out by an aspirator, and the diluted sample was dispensed into the plate at a volume of 50 μL/well. Then, the plate was left to stand at room temperature for 15 to 30 minutes.
To maintain HUVECs, EGM2-MV and a collagen coated dish were used (the cells were ceased to be used after 10th or 1 lth passage since the cell proliferation rate declined at this stage). The cells were dispersed with 0.05% Trypsin/EDTA, harvested in DMEM/0.5% BSA, and centrifuged at 1000 rpm for 3 minutes. After removal of supernatant, the cells were washed once with a DMEM buffer. The cells were resuspended in a DMEM buffer, counted for cell number, and diluted to 10000 cells/50 μL. The cell suspension was dispensed at a volume of 50 μL/well into the plate into which the sample had been dispensed, mixed gently, and incubated at 37° C. for 2.5 hours.
After cell adhesion was confirmed, the culture medium was completely removed by an aspirator, and 100 μL/well of DMEM/0.5% BSA was gently dispensed. Then, DMEM/0.5% BSA was completely removed by an aspirator, and 50 μL/well of DMEM/0.5% BSA was dispensed. After a white seal was applied to the bottom of the plate, 50 μL/well of CellTiter-Glo® was dispensed, and the solution was stirred for 2 minutes and left to stand at room temperature for 8 minutes. […] was detected using EnVision Xcite Multilabel Reader (produced by Perkin Elmer).
On the basis of the measured fluorescence values, the IC50 values (nM) of the different macrocyclic polypeptides for inhibition of cell adhesion were calculated.

[3] abbreviates: HUVEC adhesion to human platelet thrombospondin-coated plate, 2.5 hours, CellTiter-Glo, read-out: Cell adhesion IC50.
Setting [4] is: HUVEC adhesion to TSP1-coated plate, read-out: cell adhesion inhibition (Table 4).

Sequence of human TSP1 (P07996 19-1170 limits assumed): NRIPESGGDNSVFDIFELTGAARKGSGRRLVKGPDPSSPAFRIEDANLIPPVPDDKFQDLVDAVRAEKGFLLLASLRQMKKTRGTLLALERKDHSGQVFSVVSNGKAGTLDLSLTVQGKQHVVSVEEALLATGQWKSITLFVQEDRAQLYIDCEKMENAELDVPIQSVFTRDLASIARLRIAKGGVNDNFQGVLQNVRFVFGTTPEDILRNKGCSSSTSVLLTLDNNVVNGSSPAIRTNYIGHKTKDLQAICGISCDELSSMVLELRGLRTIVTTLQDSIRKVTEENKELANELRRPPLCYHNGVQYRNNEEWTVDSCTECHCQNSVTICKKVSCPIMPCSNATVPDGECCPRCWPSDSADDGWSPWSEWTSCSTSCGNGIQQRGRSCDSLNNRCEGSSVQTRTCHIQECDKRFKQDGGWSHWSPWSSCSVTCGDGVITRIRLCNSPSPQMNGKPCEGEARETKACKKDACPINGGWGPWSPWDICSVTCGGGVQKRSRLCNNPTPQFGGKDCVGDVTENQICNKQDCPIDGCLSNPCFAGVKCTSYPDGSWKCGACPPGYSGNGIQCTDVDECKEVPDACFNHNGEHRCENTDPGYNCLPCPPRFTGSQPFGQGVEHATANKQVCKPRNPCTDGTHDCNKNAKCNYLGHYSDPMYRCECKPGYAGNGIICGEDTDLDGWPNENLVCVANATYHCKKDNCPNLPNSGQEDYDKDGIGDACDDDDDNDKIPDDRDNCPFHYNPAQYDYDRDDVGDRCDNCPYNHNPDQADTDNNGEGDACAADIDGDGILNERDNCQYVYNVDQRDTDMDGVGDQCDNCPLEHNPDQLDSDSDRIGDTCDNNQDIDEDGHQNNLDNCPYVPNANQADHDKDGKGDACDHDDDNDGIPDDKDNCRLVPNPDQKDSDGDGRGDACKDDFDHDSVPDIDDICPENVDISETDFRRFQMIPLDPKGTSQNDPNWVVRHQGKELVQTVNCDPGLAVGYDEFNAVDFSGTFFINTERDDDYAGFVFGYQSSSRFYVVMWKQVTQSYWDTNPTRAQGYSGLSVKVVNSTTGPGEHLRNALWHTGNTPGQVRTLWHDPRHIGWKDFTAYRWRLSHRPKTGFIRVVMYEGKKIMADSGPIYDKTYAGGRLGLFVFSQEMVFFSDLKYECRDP

For the compound `CC[C@H](C)[C@@H]1NC(=O)[C@H](Cc2ccc3ccccc3c2)NC(=O)CSC[C@@H](C(N)=O)NC(=O)[C@H](C(C)C)NC(=O)[C@H](Cc2c[nH]c3ccccc23)NC(=O)[C@H](Cc2c[nH]cn2)NC(=O)[C@H](C(C)C)NC(=O)[C@H](Cc2c[nH]c3ccccc23)NC(=O)[C@H](CC(N)=O)NC(=O)[C@H](CCCNC(=N)N)NC(=O)CNC(=O)[C@H](CO)NC1=O` [Compound 41] ({CH2CO}-[2Nal]ISGRNWVHWVC-NH2; thioether N-12), in assay [1], the “% change (vs. vehicle)” value stood at 32.7% and the “%, ischemia/nonischemia” value turned out to be 58.05%. Take `CC[C@H](C)[C@@H]1NC(=O)[C@H](Cc2ccc3ccccc3c2)NC(=O)CSC[C@@H](C(N)=O)NC(=O)[C@H](C(C)C)NC(=O)[C@H](Cc2c[nH]c3ccccc23)NC(=O)[C@H](CCCCN)NC(=O)[C@H](C(C)C)NC(=O)[C@H](Cc2ccc3ccccc3c2)NC(=O)[C@H](CC(N)=O)NC(=O)[C@H](CCCNC(=N)N)NC(=O)CNC(=O)[C@H](CO)NC1=O` [Compound 28] ({CH2CO}-[2Nal]ISGRN[2Nal]VKWVC-NH2; thioether N-12): in assay [1], the “% change (vs. vehicle)” value came out at 1.8% and the “%, ischemia/nonischemia” value was determined as 40.79%. Take `CC[C@H](C)[C@@H]1NC(=O)[C@H](Cc2ccc3ccccc3c2)NC(=O)CSC[C@@H](C(N)=O)NC(=O)[C@H](C(C)C)NC(=O)[C@H](Cc2c[nH]c3ccccc23)NC(=O)[C@H](CCCCN)NC(=O)[C@H](C(C)C)NC(=O)[C@H](Cc2c[nH]c3ccccc23)NC(=O)[C@H](CC(=O)O)NC(=O)[C@H](CCCNC(=N)N)NC(=O)CNC(=O)[C@H](CO)NC1=O` [Compound 40] ({CH2CO}-[2Nal]ISGRDWVKWVC-NH2; thioether N-12): in assay [1], the “% change (vs. vehicle)” value is given as 6.4% and the “%, ischemia/nonischemia” value turned out to be 46.53%. Besides, the IC50 in assay [2] (setting [3]) was found to be 16.1 nM.

Consider `CC(C)[C@@H]1NC(=O)[C@H](Cc2c[nH]c3ccccc23)NC(=O)[C@H](CCCCN)NC(=O)[C@H](C(C)C)NC(=O)[C@H](Cc2c[nH]c3ccccc23)NC(=O)[C@H](CC(N)=O)NC(=O)[C@H](CCCNC(=N)N)NC(=O)CNC(=O)[C@H](CO)NC(=O)[C@H](Cc2c[nH]c3ccccc23)NC(=O)[C@H](Cc2ccc3ccccc3c2)NC(=O)CSC[C@@H](C(N)=O)NC1=O` [Compound 33] ({CH2CO}-[2Nal]WSGRNWVKWVC-NH2; thioether N-12), for which the IC50 in assay [2] (setting [3]) amounted to 20.7 nM. For the compound `CCCC[C@@H]1NC(=O)[C@H](Cc2c[nH]c3ccccc23)NC(=O)[C@H](CC(=O)O)NC(=O)[C@H](CCCNC(=N)N)NC(=O)CNC(=O)[C@H](CO)NC(=O)[C@H]([C@@H](C)CC)NC(=O)[C@H](Cc2ccc3ccccc3c2)NC(=O)[C@H](C)NC(=O)CSC[C@@H](C(N)=O)NC(=O)[C@H](C(C)C)NC(=O)[C@H](Cc2c[nH]c3ccccc23)NC(=O)[C@H](CCCCN)NC1=O` [Compound 80] ({CH2CO}-A[2Nal]ISGRDW[Nle]KWVC-NH2; thioether N-13), the IC50 in assay [2] (setting [4]) was found to be 11.5 nM. Turning to `CC(C)[C@@H]1NC(=O)[C@H](Cc2c[nH]c3ccccc23)NC(=O)[C@H](C(C)C)NC(=O)[C@H](C(C)C)NC(=O)[C@H](Cc2c[nH]c3ccccc23)NC(=O)[C@H](CC(=O)O)NC(=O)[C@H](CCCCN)NC(=O)CNC(=O)[C@H](CO)NC(=O)[C@H](CCCNC(=N)N)NC(=O)[C@H](Cc2ccc3ccccc3c2)NC(=O)CSC[C@@H](C(N)=O)NC1=O` [Compound 99] ({CH2CO}-[2Nal]RSGKDWVVWVC-NH2; thioether N-12), the IC50 in assay [2] (setting [4]) came out at 14.2 nM.

For `CC[C@H](C)[C@@H]1NC(=O)[C@H](Cc2ccccc2)NC(=O)CSC[C@@H](C(N)=O)NC(=O)[C@H](CCCNC(=N)N)NC(=O)[C@H](Cc2c[nH]c3ccccc23)NC(=O)[C@H](CCCNC(=N)N)NC(=O)[C@H](C(C)C)NC(=O)[C@H](Cc2c[nH]c3ccccc23)NC(=O)[C@H](CC(N)=O)NC(=O)[C@H](CCCNC(=N)N)NC(=O)CNC(=O)[C@H](CO)NC1=O` [Compound 5], the IC50 in assay [2] (setting [3]) was 33.4 nM.

In the case of `CC(C)[C@@H]1NC(=O)[C@H](Cc2c[nH]c3ccccc23)NC(=O)[C@H](CCCCN)NC(=O)[C@H](C(C)C)NC(=O)[C@H](Cc2c[nH]c3ccccc23)NC(=O)[C@H](CC(N)=O)NC(=O)[C@H](CCCNC(=N)N)NC(=O)CNC(=O)[C@H](CO)NC(=O)[C@H](c2ccccc2)NC(=O)[C@H](Cc2ccc3ccccc3c2)NC(=O)CSC[C@@H](C(N)=O)NC1=O` [Compound 49] ({CH2CO}-[2Nal][Phg]SGRNWVKWVC-NH2; thioether N-12), the IC50 in assay [2] (setting [3]) stood at 11.5 nM. Consider `CC[C@H](C)[C@@H]1NC(=O)[C@H](Cc2ccccc2)NC(=O)CSC[C@@H](C(N)=O)NC(=O)[C@H](C(C)C)NC(=O)[C@H](Cc2c[nH]c3ccccc23)NC(=O)[C@H](CCCCN)NC(=O)[C@H](CCSC)NC(=O)[C@H](Cc2c[nH]c3ccccc23)NC(=O)[C@H](CC(N)=O)NC(=O)[C@H](CCCCN)NC(=O)CNC(=O)[C@H](CO)NC1=O` [Compound 19] ({CH2CO}-FISGKNWMKWVC-NH2; thioether N-12), for which, in assay [2] (setting [3]), the IC50 was 14 nM. With `CC[C@H](C)[C@@H]1NC(=O)[C@H](Cc2ccccc2)NC(=O)CSC[C@@H](C(N)=O)NC(=O)[C@H](C(C)C)NC(=O)[C@H](Cc2c[nH]c3ccccc23)NC(=O)[C@H](CCCCN)NC(=O)[C@H](C(C)C)NC(=O)[C@H](Cc2c[nH]c3ccccc23)NC(=O)[C@H]([C@@H](C)O)NC(=O)[C@H](CCCCN)NC(=O)CNC(=O)[C@H](CO)NC1=O` [Compound 18] ({CH2CO}-FISGKTWVKWVC-NH2; thioether N-12), the IC50 in assay [2] (setting [3]) came out at 13 nM. The same measure, in the same setting: the same measure for `CC[C@H](C)[C@@H]1NC(=O)[C@H](Cc2ccc3ccccc3c2)NC(=O)CSC[C@@H](C(N)=O)NC(=O)[C@H](C(C)C)NC(=O)[C@H](Cc2c[nH]c3ccccc23)NC(=O)[C@H](CCCCN)NC(=O)[C@H](C(C)C)NC(=O)[C@H](Cc2c[nH]c3ccccc23)NC(=O)[C@H](CC(N)=O)NC(=O)[C@H](CCCNC(=N)N)NC(=O)CNC(=O)[C@H](C)NC1=O` [Compound 30] ({CH2CO}-[2Nal]IAGRNWVKWVC-NH2; thioether N-12): 16.7 nM. `CCCC[C@@H]1NC(=O)[C@H](Cc2c[nH]c3ccccc23)NC(=O)[C@H](CC(N)=O)NC(=O)[C@H](CCCNC(=N)N)NC(=O)CNC(=O)[C@H](CO)NC(=O)[C@H]([C@@H](C)CC)NC(=O)[C@H](Cc2ccc3ccccc3c2)NC(=O)CSC[C@@H](C(N)=O)NC(=O)[C@H](C(C)C)NC(=O)[C@H](Cc2c[nH]c3ccccc23)NC(=O)[C@H](CCCCN)NC1=O` [Compound 38] ({CH2CO}-[2Nal]ISGRNW[Nle]KWVC-NH2; thioether N-12): the IC50 in assay [2] (setting [3]) was found to be 9.2 nM.
